Laboratory results from publication PMC6736730 (Biochemistry, 2019).

Columns and labels:
msAPAH [1] = molecular target: T1, msAPAH (Marinobacter subterrani, UniProt A0A0J7JFD7); assay: Hydrolysis of acetyllysine substrates; format: biochemical; details: acetyllysine (Aly) and MSH2-based peptide substrates; LC-MS assay
msAPAH [2] = molecular target: T1, msAPAH; assay: Isothermal titration calorimetry; format: binding; details: ITC, 25 °C; inhibitor 7 with 5% (v/v) DMSO
msAPAH [3] = molecular target: T1, msAPAH; assay: Inhibitory activity measurements; format: biochemical
msAPAH [4] = molecular target: T1, msAPAH; assay: Steady-state kinetics of acetylpolyamine hydrolysis; format: biochemical; details: 25° C, pH 7.75, triplicate; N^8-acetylspermidine value at 0 mM KCl

dissociation constant / enthalpogram fit (in words) (msAPAH [2])	IC50 (msAPAH [3])	Km (msAPAH [4])	Structure (SMILES)	other results
			CC(=O)NCCCC[C@H](N)C(N)=O [Aly-NH2]	catalytic activity for hydrolysis (msAPAH [1]): No significant catalytic activity
nanomolar dissociation constant	160 µM		NCCCNCCCCCS [Inhibitor 3, 5-[(3-aminopropyl)amino]pentane-1-thiol]	
	410 µM		NCCCCCC(=O)NO [Inhibitor 4, 6-amino-N-hydroxyhexanamide]	
	380 µM		NCCCCCCCC(=O)NO [Inhibitor 5, 8-amino-N-hydroxyoctanamide]	
micromolar dissociation constants	470 µM		NCCCNCCCCCC(=O)NO [Inhibitor 6, 6-[(3-aminopropyl)amino]-N-hydroxyhexanamide]	
		800 ± 300 µM	CC(=O)NCCCCCN [acetylcadaverine]	
		44 ± 10 µM	CC(=O)NCCCCN [acetylputrescine]	
		1300 ± 600 µM	CC(=O)NCCCNCCCCNCCCN [acetylspermine]	

Structure (SMILES)	dissociation constant / enthalpogram fit (in words) (msAPAH [2])	IC50 (msAPAH [3])	Km (msAPAH [4])	other results
CN(C)c1ccc(C(=O)NCCCCCCC(=O)NO)cc1 [Inhibitor 7, reference compound]	could not be fit to binding curves			
